Test results reported in ChEMBL document CHEMBL3085635, “Synthesis of structurally diverse benzosuberene analogues and their biological evaluation as anti-cancer agents” (Bioorg Med Chem, 2013).

How the values were obtained:
[1] = Inhibition of calf brain tubulin polymerization after 15 mins by UV-visible spectrophotometry; design: species or system Bos taurus
[2] = system: NCI-H460; assay: Cytotoxicity against human NCI-H460 cells after 48 hrs by SRB assay; format: functional
[3] = system: DU-145; assay: Cytotoxicity against human DU145 cells after 48 hrs by SRB assay; format: functional
[4] = system: SK-OV-3; assay: Cytotoxicity against human SKOV3 cells after 48 hrs by SRB assay; format: functional

Compound | IC50 [1] [nM] | GI50 ([2]; Homo sapiens, NCI-H460, 48 h) [nM] | GI50 ([3]; Homo sapiens, DU-145, 48 h) [nM] | GI50 ([4]; Homo sapiens, SK-OV-3, 48 h) [nM] | GI50 [2] [nM] | GI50 [3] [nM] | GI50 [4] [nM]
COc1ccc(C2=CCCCc3c2ccc(OC)c3OC)cc1OC | > 40000 | > 136000 | 42500 | > 89500 | – | – | –
COc1ccc2c(c1NC(=O)[C@@H](N)CO)CCCC=C2c1cc(OC)c(OC)c(OC)c1 [listing 1 of 2 here] | – | 53800 | 69400 | 35000 | – | – | –
COc1cc2c(c(OC)c1O)CCCC=C2c1cc(OC)c(OC)c(OC)c1 | > 40000 | 18000 | 15700 | 7130 | – | – | –
COc1ccc(C2=CCCCc3c2ccc(OC)c3O)cc1OC | 740 | 262 | 109 | 33.4 | – | – | –
COc1ccc2c(c1F)CCCC=C2c1cc(OC)c(OC)c(OC)c1 | 890 | 5.47 | 18.9 | 7.51 | – | – | –
COc1ccc2c(c1NC(=O)[C@@H](N)CO)CCCC=C2c1cc(OC)c(OC)c(OC)c1 [listing 2 of 2 here] | – | – | – | – | 39000 | 70500 | 36800
COc1ccc(/C=C\c2cc(OC)c(OC)c(OC)c2)cc1OP(=O)(O)O [FOSBRETABULIN DISODIUM] | > 40000 | 1.94 | 3.23 | 1.19 | – | – | –
COc1ccc2c(c1Cl)CCCC=C2c1cc(OC)c(OC)c(OC)c1 | 930 | 71.3 | 152 | 44.4 | – | – | –
COc1cc(C2=CCCCc3c2cc(OC)c(OC)c3O)cc(OC)c1OC | > 40000 | 25900 | 38400 | 18100 | – | – | –
COc1ccc2c(c1N)CCCC=C2c1cc(OC)c(OC)c(OC)c1 | 1200 | 2.8 | – | 0.102 | – | – | –
COc1cc(C2=CCCCc3ccccc32)cc(OC)c1OC | > 40000 | 32500 | 22000 | 19100 | – | – | –
COc1cc(C2=CCCCc3c2ccc(OC)c3OP(=O)(O)O)cc(OC)c1OC | > 40000 | 7.96 | 9.51 | – | – | – | –
COc1ccc2c(c1O)CCCC=C2c1cc(OC)c(OC)c(OC)c1 | 1400 | 0.0418 | 0.0249 | 0.0543 | – | – | –
COc1ccc(/C=C\c2cc(OC)c(OC)c(OC)c2)cc1O [COMBRETASTATIN A4] | – | 2.23 | 3.27 | 4.55 | – | – | –
